Data taken from patent publication US7135466B2 (Kirin Beer Kabushiki Kaisha, priority 1999, dated 2006).
Like-named read-outs stand apart in the source and are kept apart here.

Tests used:
c-kit = biological target: T1, c-kit (Homo sapiens, UniProt P10721); test: Inhibitory activity against c-kit autophosphorylation (MO7e cells, h-SCF); assay type: cell-based; conditions: for inhibition at 1 µM: Mo7e, at 1000 nM; for IC50: MO7e cells, read-out: c-kit IC50
T1 construct: MO7e (human megakaryocytic leukemia cell line) which had been arrested for 20 hr; endogenous in cells; host or cells: MO7e human megakaryocytic leukemia cell line
Summary of the method: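 MO7e cells, arrested for 20 hr, were pretreated with test compound in DMSO for 1 hr and then stimulated with 50 ng/ml h-SCF for 5 min before lysis. Lysates were captured on immobilized anti-phosphotyrosine PY-20, probed with anti-c-kit antibody and HRP anti-rabbit IgG, and read colorimetrically at 450 nm.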

PDGF-Ra = biological target: T2, PDGF-Ra (Homo sapiens, UniProt P16234); test: Inhibitory activity against PDGF-Ra phosphorylation by PDGF-AA stimulation using G292; assay type: cell-based; conditions: for IC50: > means inhibition at indicated concentration not more than 50%, < and << not less than 50%, read-out: PDGF (E) IC50; for inhibition at 0.1 µM: G292, figure within parentheses in >100( ), at 100 nM, read-out: PDGF (E) inhibition (%) at 100 nM
T2 construct: host or cells: G-292 human osteosarcoma cells
Summary of the method: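 Read-out: A450 from a sandwich ELISA (PY-20 capture, anti-PDGF-Ra detection, peroxidase colour) of lysates from G-292 cells given compound for 1 hr at 37 °C before a 5 min challenge with PDGF-AA at 50 ng/ml.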

[1] = figure within parentheses in −( ) or >1000( )

T1 sequence (P10721 26-976): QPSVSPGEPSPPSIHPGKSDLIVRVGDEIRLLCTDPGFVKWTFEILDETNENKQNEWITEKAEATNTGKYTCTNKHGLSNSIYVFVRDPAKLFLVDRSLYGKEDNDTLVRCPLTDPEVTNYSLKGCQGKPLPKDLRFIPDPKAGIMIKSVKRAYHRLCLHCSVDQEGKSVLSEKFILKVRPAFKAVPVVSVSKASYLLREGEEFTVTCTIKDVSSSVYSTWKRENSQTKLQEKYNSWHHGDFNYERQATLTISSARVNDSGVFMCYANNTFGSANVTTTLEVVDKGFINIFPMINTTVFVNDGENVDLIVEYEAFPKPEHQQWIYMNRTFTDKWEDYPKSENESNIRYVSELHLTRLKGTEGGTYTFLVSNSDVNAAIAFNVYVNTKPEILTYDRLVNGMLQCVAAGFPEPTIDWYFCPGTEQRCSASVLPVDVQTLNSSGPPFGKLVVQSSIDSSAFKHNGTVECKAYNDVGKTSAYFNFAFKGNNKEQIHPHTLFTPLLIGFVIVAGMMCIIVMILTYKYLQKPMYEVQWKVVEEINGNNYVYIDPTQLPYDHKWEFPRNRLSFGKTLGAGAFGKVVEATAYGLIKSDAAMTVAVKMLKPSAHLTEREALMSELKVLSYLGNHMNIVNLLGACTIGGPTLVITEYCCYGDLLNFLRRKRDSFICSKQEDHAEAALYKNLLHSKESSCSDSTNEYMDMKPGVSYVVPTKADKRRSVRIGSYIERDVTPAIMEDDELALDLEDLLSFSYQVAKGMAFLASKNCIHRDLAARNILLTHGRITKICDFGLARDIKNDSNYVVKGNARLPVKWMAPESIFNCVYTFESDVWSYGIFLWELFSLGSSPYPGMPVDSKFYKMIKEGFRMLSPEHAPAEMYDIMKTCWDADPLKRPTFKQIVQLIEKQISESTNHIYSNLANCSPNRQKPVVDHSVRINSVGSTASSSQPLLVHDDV
T2 sequence (P16234 24-1089): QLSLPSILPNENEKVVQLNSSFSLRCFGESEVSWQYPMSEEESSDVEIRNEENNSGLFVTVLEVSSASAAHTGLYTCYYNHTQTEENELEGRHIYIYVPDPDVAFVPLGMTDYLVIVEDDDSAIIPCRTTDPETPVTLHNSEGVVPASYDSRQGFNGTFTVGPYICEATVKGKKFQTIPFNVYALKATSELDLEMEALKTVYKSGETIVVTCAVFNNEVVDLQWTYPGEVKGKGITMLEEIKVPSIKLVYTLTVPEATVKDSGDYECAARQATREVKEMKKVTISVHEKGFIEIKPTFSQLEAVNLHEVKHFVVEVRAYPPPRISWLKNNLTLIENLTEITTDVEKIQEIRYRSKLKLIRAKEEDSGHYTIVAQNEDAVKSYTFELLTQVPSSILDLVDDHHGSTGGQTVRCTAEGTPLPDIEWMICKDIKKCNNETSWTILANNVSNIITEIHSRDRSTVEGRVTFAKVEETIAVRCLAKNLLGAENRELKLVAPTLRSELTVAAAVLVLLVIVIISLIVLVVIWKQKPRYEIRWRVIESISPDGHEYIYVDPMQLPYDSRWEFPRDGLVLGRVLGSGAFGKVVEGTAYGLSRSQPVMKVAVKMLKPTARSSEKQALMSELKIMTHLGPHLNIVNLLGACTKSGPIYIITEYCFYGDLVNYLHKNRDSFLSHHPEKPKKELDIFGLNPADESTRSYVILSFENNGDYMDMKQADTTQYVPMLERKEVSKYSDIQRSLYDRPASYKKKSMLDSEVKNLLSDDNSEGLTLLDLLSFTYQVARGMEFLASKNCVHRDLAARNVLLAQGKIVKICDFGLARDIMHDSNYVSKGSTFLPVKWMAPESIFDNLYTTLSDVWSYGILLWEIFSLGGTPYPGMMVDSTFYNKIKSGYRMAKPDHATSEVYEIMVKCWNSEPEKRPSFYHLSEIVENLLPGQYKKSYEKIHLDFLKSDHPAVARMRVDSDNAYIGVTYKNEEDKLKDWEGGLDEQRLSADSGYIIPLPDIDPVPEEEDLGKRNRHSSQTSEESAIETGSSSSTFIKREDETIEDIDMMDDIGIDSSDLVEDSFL

SMILES | IC50 (PDGF-Ra) | IC50 (c-kit; h-SCF 50 ng/ml) | IC50 (PDGF-Ra; Pharmacological Test Example 1) | further results
COc1cc2nccc(Oc3ccc(NC(=O)NN4CCCCC4)c([N+](=O)[O-])c3)c2cc1OC [Example 594, N-{4-[(6,7-Dimethoxy-4-quinolyl)oxy]-2-nitrophenyl}-N′-(1-piperidinyl)urea] | > 100 nM | – | – | inhibition at 1 µM (c-kit; [1]): 10%; inhibition at 0.1 µM (PDGF-Ra): 39%
COc1cc2nccc(Oc3ccc(NC(=S)NC(=O)c4ccc(Br)s4)c(C)c3)c2cc1OC [Example 692, N-[(5-Bromo-2-thienyl)carbonyl]-N′-{4-[(6,7-dimethoxy-4-quinolyl)oxy]-2-methylphenyl}thiourea] | > 100 nM | – | – | IC50 (c-kit; 50 ng/ml h-SCF): > 1000 nM; inhibition at 1 µM (c-kit; [1]): 20%; inhibition at 0.1 µM (PDGF-Ra): 35%
COc1cc2nccc(Oc3ccc(NC(=O)OCC4CC4)c(C)c3C)c2cc1OC [Example 382, Cyclopropylmethyl N-{4-[(6,7-dimethoxy-4-quinolyl)oxy]-2,3-dimethylphenyl}carbamate] | – | 28 nM | < 10 nM | –
COc1cc2nccc(Oc3ccc(NC(=O)OCCCOc4ccc(F)cc4)c(C)c3C)c2cc1OC [Example 153, 3-(4-Fluorophenoxy)propyl N-{4-[(6,7-dimethoxy-4-quinolyl)oxy]-2,3-dimethylphenyl}carbamate] | – | < 30 nM | < 10 nM | –
COc1cc2nccc(Oc3ccc(NC(=S)NC(=O)N(C(C)C)C(C)C)cc3)c2cc1OC [Example 1043, N-{4-[(6,7-Dimethoxy-4-quinolyl)oxy]phenyl}-{[(diisopropylamino)carbonyl]amino}methanethioamide] | 27 nM | – | – | IC50 (c-kit; h-SCF stimulation): 449 nM
COc1cc2ncnc(Oc3ccc(NC(=O)OCC4CCC4)cc3)c2cc1OC [Example 388, Cyclobutylmethyl N-{4-[(6,7-dimethoxy-4-quinazolinyl)oxy]phenyl}carbamate] | – | 60 nM | 12 nM | –
COc1cc2ncnc(Oc3ccc(NC(=O)OC4CCCCC4)cc3)c2cc1OC [Example 312, Cyclohexyl N-{4-[(6,7-dimethoxy-4-quinazolinyl)oxy]phenyl}carbamate] | – | 29 nM | < 10 nM | –
COc1cc2ncnc(Oc3ccc(NC(=O)OC4CCCC4)cc3)c2cc1OC [Example 366, Cyclopentyl N-{4-[(6,7-dimethoxy-4-quinazolinyl)oxy]phenyl}carbamate] | – | 66 nM | 27 nM | –
COc1cc2ncnc(Oc3ccc(NC(=O)OC(C)c4cccc(F)c4)cc3)c2cc1OC (stereo not shown) [Example 100, 1-(3-Fluorophenyl)ethyl N-{4-[(6,7-dimethoxy-4-quinazolinyl)oxy]phenyl}carbamate] | – | 815 nM | 14 nM | –
COc1cc2nccc(Oc3ccc(NC(=O)OCCN4CCCCC4)cc3)c2cc1OC [Example 303, 2-Piperidinoethyl N-{4-[(6,7-dimethoxy-4-quinolyl)oxy]phenyl}carbamate] | – | 188 nM | 11 nM | –
COc1cc2ncnc(Oc3ccc(NC(=O)OCCOc4cccc(F)c4)cc3)c2cc1OC [Example 210, 2-(3-Fluorophenoxy)ethyl N-{4-[(6,7-dimethoxy-4-quinazolinyl)oxy]phenyl}carbamate] | – | 95 nM | 16 nM | –
COc1cc2nccc(Oc3ccc(NC(=O)OC(C)c4cccc(F)c4)c(C)c3C)c2cc1OC (stereo not shown) [Example 98, 1-(3-Fluorophenyl)ethyl N-{4-[(6,7-dimethoxy-4-quinolyl)oxy]-2,3-dimethylphenyl}carbamate] | – | 152 nM | < 10 nM | –
COc1cc2nccc(Oc3cc(C)c(NC(=O)Oc4ccccc4OC)cc3C)c2cc1OC [Example 278, 2-Methoxyphenyl N-{4-[(6,7-dimethoxy-4-quinolyl)oxy]-2,5-dimethylphenyl}carbamate] | – | 289 nM | 53 nM | –
COc1cc2nccc(Oc3cc(C)c(NC(=S)NCCCN4CCN(C)CC4)cc3C)c2cc1OC [Example 556, N-{4-[(6,7-Dimethoxy-4-quinolyl)oxy]-2,5-dimethylphenyl}-N′-[3-(4-methylpiperazinyl)propyl]thiourea] | > 100 nM | – | – | inhibition at 1 µM (c-kit; [1]): 28%; inhibition at 0.1 µM (PDGF-Ra): 13%
COc1cc2nccc(Oc3ccc(NC(=O)NCCN(C(C)C)C(C)C)cc3)c2cc1OC [Example 654, N-[2-(Diisopropylamino)ethyl]-N′-{4-[(6,7-dimethoxy-4-quinolyl)oxy]phenyl}urea] | 19 nM | – | – | IC50 (c-kit; 50 ng/ml h-SCF): 698 nM
COc1cc2ncnc(Oc3ccc(NC(=O)OC(C)c4cccc(F)c4)c(Cl)c3)c2cc1OC (stereo not shown) [Example 101, 1-(3-Fluorophenyl)ethyl N-{2-chloro-4-[(6,7-dimethoxy-4-quinazolinyl)oxy]phenyl}carbamate] | – | – | 12 nM | inhibition at 1 µM (c-kit; figure in parentheses in −( )): 27%
COc1cc(Oc2ncnc3cc(OC)c(OC)cc23)ccc1NC(=O)NC1CCN(Cc2ccccc2)CC1 [Example 641, N-(1-Benzyl-4-piperidyl)-N′-{4-[(6,7-dimethoxy-4-quinazolinyl)oxy]-2-methoxyphenyl}urea] | 28 nM | – | – | IC50 (c-kit; 50 ng/ml h-SCF): 293 nM
COc1cc2nccc(Oc3ccc(NC(=S)NC(=O)COCc4ccccc4)cc3F)c2cc1OC [Example 1032, N-[2-(Benzyloxy)acetyl]-N′-{4-[(6,7-dimethoxy-4-quinolyl)oxy]-3-fluorophenyl}thiourea] | < 10 nM | – | – | IC50 (c-kit; h-SCF stimulation): 321 nM
COc1cc2ncnc(Oc3ccc(N(C)C(=O)OCc4ccccc4C)cc3)c2cc1OC [Example 491, 2-Methylbenzyl N-{4-[(6,7-dimethoxy-4-quinazolinyl)oxy]phenyl}-N-methylcarbamate] | 24 nM | – | – | IC50 (c-kit; 50 ng/ml h-SCF): 315 nM
COc1cccc(OCCCOC(=O)Nc2ccc(Oc3ncnc4cc(OC)c(OC)cc34)cc2)c1 [Example 164, 3-(3-Methoxyphenoxy)propyl N-{4-[(6,7-dimethoxy-4-quinazolinyl)oxy]phenyl}carbamate] | – | 50 nM | 12 nM | –
COc1cc2ncnc(Oc3ccc(N(C)C(=O)OC4CCCCCC4)cc3)c2cc1OC [Example 494, Cycloheptyl N-{4-[(6,7-dimethoxy-4-quinazolinyl)oxy]phenyl}-N-methylcarbamate] | 16 nM | – | – | IC50 (c-kit; 50 ng/ml h-SCF): 125 nM
COc1cc2ncnc(Oc3ccc(NC(=O)OCCCSc4ccccn4)cc3)c2cc1OC [Example 175, 3-(2-Pyridylsulfanyl)propyl N-{4-[(6,7-dimethoxy-4-quinazolinyl)oxy]phenyl}carbamate] | – | 45 nM | < 10 nM | –
CCCCCCOC(=O)Nc1ccc(Oc2ncnc3cc(OC)c(OC)cc23)cc1 [Example 335, Hexyl N-{4-[(6,7-dimethoxy-4-quinazolinyl)oxy]phenyl}carbamate] | – | < 30 nM | < 10 nM | –
CCN(CC)CCCOC(=O)Nc1cc(C)c(Oc2ccnc3cc(OC)c(OC)cc23)cc1C [Example 427, 3-(Diethylamino)propyl N-{4-[(6,7-dimethoxy-4-quinolyl)oxy]-2,5-dimethylphenyl}carbamate] | > 100 nM | – | – | IC50 (c-kit; 50 ng/ml h-SCF): 364 nM; inhibition at 0.1 µM (PDGF-Ra): 13%
COc1cc2nccc(Oc3ccc(NC(=S)NC(=O)CCSC)c(C)c3)c2cc1OC [Example 696, N-{4-[(6,7-Dimethoxy-4-quinolyl)oxy]-2-methylphenyl}-N′-[3-(methylthio)propanoyl]-thiourea] | > 100 nM | – | – | inhibition at 1 µM (c-kit; [1]): 35%; inhibition at 0.1 µM (PDGF-Ra): 37%
COc1cc2nccc(Oc3ccc(OCCCOc4ccccc4C)cc3)c2cc1OC [Example 792, 6,7-Dimethoxy-4-{4-[3-(2-methylphenoxy)propoxy]phenoxy}quinoline] | 6 nM | – | – | IC50 (c-kit; 50 ng/ml h-SCF): 301 nM
